According to the kinase profiling compilation of Christmann-Franck et al. (2016):

Legend:
Assay in all cases: KINOMEscan competition binding
Settings in all cases: compound 10.0 µM
[1] = biological target: TEC (human) (UniProt P42680)
[2] = biological target: PHKG2 (human) (UniProt P15735)
[3] = biological target: PRKAA1 (human) (UniProt Q13131)
[4] = biological target: PAK1 (human) (UniProt Q13153)
[5] = biological target: HIPK1 (human) (UniProt Q86Z02)
[6] = biological target: PLK1 (human) (UniProt P53350)
[7] = biological target: CDK4 CCND3 (human) (UniProt P11802+P30281)
[8] = biological target: CIT (human) (UniProt O14578)
[9] = biological target: PLK2 (human) (UniProt Q9NYY3)
[10] = biological target: EPHA7 (human) (UniProt Q15375)
[11] = biological target: BMPR1B (human) (UniProt O00238)
[12] = biological target: MAPK7 (human) (UniProt Q13164)
[13] = biological target: TNIK (human) (UniProt Q9UKE5)
[14] = biological target: PRKAA2 (human) (UniProt P54646)
[15] = biological target: MAPK12 (human) (UniProt P53778)
[16] = biological target: DAPK3 (human) (UniProt O43293)
[17] = biological target: MAP3K10 (human) (UniProt Q02779)
[18] = biological target: CLK1 (human) (UniProt P49759)
[19] = biological target: BMPR1A (human) (UniProt P36894)
[20] = biological target: AXL (human) (UniProt P30530)
[21] = biological target: ADCK3 (human) (UniProt Q8NI60)
[22] = biological target: MAP2K5 (human) (UniProt Q13163)
[23] = biological target: RET (human) (UniProt P07949)
[24] = biological target: KDR (human) (UniProt P35968)
[25] = biological target: FGFR4 (human) (UniProt P22455)
[26] = biological target: MAP3K5 (human) (UniProt Q99683)
[27] = biological target: TIE1 (human) (UniProt P35590)
[28] = biological target: PTK6 (human) (UniProt Q13882)
[29] = biological target: FLT4 (human) (UniProt P35916)
[30] = system: CPK1 (P.falciparum)
[31] = biological target: BRSK2 (human) (UniProt Q8IWQ3)
[32] = biological target: PIK3CA (human) (UniProt P42336)
[33] = biological target: MAP4K5 (human) (UniProt Q9Y4K4)
[34] = biological target: PIK3CG (human) (UniProt P48736)
[35] = biological target: ZAP70 (human) (UniProt P43403)
[36] = biological target: MAPK4 (human) (UniProt P31152)
[37] = biological target: MYLK3 (human) (UniProt Q32MK0)
[38] = biological target: CDC2L2 (human) (UniProt Q9UQ88)
[39] = biological target: CDK13 (human) (UniProt Q14004)
[40] = biological target: EPHA3 (human) (UniProt P29320)
[41] = biological target: STK11 (human) (UniProt Q15831)

Sequence of PLK1 (human) (P53350 whole entry, looked up): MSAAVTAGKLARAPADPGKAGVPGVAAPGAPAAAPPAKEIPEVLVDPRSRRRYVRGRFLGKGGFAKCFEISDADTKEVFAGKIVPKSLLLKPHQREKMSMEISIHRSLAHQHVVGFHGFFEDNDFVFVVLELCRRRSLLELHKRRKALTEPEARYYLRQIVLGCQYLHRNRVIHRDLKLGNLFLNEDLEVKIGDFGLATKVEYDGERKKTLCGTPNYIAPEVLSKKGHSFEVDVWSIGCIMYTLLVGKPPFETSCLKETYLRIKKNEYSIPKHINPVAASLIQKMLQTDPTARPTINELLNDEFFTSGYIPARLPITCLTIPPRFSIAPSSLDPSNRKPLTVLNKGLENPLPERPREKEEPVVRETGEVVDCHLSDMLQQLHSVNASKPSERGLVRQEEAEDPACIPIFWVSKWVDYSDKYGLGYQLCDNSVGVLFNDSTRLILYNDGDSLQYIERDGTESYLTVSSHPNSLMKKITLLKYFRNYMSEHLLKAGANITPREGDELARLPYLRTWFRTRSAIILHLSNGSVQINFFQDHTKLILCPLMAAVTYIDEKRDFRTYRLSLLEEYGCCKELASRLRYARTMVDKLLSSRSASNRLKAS
Sequence of BMPR1B (human) (O00238 whole entry, looked up): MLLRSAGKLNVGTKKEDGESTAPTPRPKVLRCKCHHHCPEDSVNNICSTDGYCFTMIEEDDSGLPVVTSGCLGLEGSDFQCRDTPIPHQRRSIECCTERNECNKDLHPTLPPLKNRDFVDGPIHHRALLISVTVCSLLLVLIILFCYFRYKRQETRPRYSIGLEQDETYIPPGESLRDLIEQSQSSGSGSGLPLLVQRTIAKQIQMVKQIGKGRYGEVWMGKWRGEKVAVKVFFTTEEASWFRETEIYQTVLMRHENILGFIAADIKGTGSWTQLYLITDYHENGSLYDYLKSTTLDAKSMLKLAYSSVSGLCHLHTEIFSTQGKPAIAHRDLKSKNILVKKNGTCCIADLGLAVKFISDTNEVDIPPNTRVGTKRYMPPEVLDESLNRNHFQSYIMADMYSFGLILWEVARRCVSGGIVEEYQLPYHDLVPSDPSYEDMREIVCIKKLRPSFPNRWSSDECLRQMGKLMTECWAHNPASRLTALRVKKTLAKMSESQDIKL
Sequence of CDK13 (human) (Q14004 whole entry, looked up): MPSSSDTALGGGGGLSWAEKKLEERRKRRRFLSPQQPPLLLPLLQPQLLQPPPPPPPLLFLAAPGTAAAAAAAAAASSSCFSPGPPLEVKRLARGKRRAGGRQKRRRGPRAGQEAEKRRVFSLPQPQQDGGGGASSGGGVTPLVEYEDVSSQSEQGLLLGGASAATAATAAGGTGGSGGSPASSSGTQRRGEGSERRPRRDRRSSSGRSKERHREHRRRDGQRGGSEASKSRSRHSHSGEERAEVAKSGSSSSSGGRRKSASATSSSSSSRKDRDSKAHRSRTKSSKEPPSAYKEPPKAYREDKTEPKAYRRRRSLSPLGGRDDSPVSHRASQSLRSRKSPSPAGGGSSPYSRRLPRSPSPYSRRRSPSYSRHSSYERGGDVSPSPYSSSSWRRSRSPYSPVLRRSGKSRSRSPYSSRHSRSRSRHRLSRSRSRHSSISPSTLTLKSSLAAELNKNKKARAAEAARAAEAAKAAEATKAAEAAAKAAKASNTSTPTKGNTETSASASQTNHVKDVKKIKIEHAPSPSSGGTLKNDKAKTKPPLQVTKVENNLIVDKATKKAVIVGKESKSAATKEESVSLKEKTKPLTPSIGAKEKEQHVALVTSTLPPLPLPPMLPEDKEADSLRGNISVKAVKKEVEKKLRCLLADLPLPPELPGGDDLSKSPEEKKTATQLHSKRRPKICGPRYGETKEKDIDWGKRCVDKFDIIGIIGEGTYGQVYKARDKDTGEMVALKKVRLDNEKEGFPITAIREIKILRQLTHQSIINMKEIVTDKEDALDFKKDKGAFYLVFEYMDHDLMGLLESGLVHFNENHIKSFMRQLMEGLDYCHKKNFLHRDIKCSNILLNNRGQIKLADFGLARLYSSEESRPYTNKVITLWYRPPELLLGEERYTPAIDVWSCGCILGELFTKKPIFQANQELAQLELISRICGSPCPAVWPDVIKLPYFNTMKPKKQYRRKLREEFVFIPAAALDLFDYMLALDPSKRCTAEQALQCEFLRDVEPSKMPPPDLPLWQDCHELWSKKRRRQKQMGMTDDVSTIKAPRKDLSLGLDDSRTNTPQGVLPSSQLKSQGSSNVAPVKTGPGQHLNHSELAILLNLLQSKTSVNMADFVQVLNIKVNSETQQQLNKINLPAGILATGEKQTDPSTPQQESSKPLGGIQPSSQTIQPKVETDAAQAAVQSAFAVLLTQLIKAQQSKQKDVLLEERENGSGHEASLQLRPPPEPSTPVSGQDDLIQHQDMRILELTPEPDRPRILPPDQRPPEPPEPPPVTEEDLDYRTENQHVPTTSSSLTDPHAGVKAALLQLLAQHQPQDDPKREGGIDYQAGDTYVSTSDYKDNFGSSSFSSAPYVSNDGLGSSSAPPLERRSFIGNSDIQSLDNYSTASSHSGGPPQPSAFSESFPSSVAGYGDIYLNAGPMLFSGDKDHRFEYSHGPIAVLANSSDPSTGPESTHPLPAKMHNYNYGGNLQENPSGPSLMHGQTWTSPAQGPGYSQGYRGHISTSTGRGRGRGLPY
Sequence of FGFR4 (human) (P22455 whole entry, looked up): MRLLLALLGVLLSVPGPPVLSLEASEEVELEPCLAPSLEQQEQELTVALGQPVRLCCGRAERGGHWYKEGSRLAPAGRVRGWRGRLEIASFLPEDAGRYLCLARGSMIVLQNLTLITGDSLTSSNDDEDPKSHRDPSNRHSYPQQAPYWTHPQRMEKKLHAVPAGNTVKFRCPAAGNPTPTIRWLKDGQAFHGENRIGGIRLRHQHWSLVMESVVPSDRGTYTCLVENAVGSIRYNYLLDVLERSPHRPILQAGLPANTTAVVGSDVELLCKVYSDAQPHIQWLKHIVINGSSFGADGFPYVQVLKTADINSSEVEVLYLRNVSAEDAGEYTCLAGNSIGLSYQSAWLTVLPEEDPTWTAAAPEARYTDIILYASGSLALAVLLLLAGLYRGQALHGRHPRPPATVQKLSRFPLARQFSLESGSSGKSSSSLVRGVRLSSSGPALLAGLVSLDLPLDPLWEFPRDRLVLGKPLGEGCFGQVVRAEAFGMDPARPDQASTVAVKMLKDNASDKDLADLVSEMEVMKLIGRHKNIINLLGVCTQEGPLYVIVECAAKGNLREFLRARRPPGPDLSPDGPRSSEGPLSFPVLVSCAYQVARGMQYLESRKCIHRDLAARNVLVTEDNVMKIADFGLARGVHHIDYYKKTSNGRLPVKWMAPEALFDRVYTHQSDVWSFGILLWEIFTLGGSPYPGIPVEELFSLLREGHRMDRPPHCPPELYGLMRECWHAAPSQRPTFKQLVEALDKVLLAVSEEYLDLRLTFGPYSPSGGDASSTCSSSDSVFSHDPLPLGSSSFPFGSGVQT
Sequence of CDC2L2 (human) (Q9UQ88 whole entry, looked up): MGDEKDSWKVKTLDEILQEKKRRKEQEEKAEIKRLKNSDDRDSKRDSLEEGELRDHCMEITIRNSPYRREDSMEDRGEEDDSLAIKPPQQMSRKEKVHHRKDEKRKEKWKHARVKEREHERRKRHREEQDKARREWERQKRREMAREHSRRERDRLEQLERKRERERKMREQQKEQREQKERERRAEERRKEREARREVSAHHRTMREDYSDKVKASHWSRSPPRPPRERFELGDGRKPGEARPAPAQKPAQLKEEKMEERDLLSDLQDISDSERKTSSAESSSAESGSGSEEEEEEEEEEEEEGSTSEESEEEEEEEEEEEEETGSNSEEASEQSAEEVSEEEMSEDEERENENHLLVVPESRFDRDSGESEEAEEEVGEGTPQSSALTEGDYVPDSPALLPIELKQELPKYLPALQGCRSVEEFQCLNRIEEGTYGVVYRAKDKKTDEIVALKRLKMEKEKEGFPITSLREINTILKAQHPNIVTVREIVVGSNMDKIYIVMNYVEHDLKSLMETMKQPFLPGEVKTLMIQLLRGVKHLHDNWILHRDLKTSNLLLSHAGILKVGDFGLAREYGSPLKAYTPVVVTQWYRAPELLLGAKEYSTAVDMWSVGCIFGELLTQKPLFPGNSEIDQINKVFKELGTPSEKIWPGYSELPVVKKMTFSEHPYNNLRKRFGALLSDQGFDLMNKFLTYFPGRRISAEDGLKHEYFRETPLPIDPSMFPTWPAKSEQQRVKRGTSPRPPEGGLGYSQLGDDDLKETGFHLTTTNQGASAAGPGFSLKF
Sequence of ZAP70 (human) (P43403 whole entry, looked up): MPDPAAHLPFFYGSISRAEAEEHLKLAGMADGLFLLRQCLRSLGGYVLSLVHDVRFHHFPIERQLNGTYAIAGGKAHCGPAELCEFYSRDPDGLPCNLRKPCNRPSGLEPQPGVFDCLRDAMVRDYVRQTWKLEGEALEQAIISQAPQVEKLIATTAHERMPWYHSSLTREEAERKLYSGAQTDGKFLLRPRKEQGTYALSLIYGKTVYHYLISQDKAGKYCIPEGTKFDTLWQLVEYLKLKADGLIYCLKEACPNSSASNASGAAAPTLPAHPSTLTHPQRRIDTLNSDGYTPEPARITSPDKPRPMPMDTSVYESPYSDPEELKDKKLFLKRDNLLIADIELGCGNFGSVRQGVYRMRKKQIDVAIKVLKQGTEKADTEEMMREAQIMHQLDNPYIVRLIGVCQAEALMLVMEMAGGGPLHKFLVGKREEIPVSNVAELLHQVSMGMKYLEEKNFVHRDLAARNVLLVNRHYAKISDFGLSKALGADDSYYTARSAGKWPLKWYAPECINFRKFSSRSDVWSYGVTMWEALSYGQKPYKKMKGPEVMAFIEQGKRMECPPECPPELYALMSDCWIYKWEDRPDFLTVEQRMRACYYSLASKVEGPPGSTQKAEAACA

Structure (SMILES) | kinase still bound, per cent of control [1] | kinase still bound, per cent of control [2] | kinase still bound, per cent of control [3] | kinase still bound, per cent of control [4] | kinase still bound, per cent of control [5] | kinase still bound, per cent of control [6] | kinase still bound, per cent of control [7] | kinase still bound, per cent of control [8] | kinase still bound, per cent of control [9] | kinase still bound, per cent of control [10] | kinase still bound, per cent of control [11] | kinase still bound, per cent of control [12] | kinase still bound, per cent of control [13] | kinase still bound, per cent of control [14] | kinase still bound, per cent of control [15] | kinase still bound, per cent of control [16] | kinase still bound, per cent of control [17] | kinase still bound, per cent of control [18] | kinase still bound, per cent of control [19] | kinase still bound, per cent of control [20] | other results
COCC(=O)NC/C=C/c1ccc2ncnc(Nc3ccc(Oc4ccc(C)nc4)c(C)c3)c2c1 | 73% | 86% | 89% | 81% | 88% | 81% | 100% | 76% | 100% | 100% | 74% | 100% | 89% | 100% | 100% | 96% | 100% | 90% | 17% | 68% | kinase still bound, per cent of control [21]: 100%; kinase still bound, per cent of control [22]: 0.2%; kinase still bound, per cent of control [23]: 87%; kinase still bound, per cent of control [24]: 100%; kinase still bound, per cent of control [25]: 100%; kinase still bound, per cent of control [26]: 90%; kinase still bound, per cent of control [27]: 100%; kinase still bound, per cent of control [28]: 100%; kinase still bound, per cent of control [29]: 98%; kinase still bound, per cent of control [30]: 25%; kinase still bound, per cent of control [31]: 100%; kinase still bound, per cent of control [32]: 100%; kinase still bound, per cent of control [33]: 86%; kinase still bound, per cent of control [34]: 100%; kinase still bound, per cent of control [35]: 100%; kinase still bound, per cent of control [36]: 100%; kinase still bound, per cent of control [37]: 100%; kinase still bound, per cent of control [38]: 100%; kinase still bound, per cent of control [39]: 100%; kinase still bound, per cent of control [40]: 97%
N#CCNC(=O)c1ccc(-c2ccnc(Nc3ccc(N4CCOCC4)cc3)n2)cc1 | 100% | 23% | 42% | 100% | 8.9% | 100% | 13% | 0.35% | 51% | 96% | 85% | 48% | 59% | 74% | 100% | 11% | 62% | 9.6% | 3.6% | 57% | kinase still bound, per cent of control [41]: 61%; kinase still bound, per cent of control [21]: 90%; kinase still bound, per cent of control [22]: 100%; kinase still bound, per cent of control [23]: 50%; kinase still bound, per cent of control [24]: 99%; kinase still bound, per cent of control [25]: 91%; kinase still bound, per cent of control [26]: 100%; kinase still bound, per cent of control [27]: 87%; kinase still bound, per cent of control [28]: 100%; kinase still bound, per cent of control [29]: 48%; kinase still bound, per cent of control [30]: 100%; kinase still bound, per cent of control [31]: 100%; kinase still bound, per cent of control [33]: 100%; kinase still bound, per cent of control [34]: 2.4%; kinase still bound, per cent of control [35]: 91%; kinase still bound, per cent of control [36]: 93%; kinase still bound, per cent of control [37]: 68%; kinase still bound, per cent of control [38]: 58%; kinase still bound, per cent of control [39]: 91%; kinase still bound, per cent of control [40]: 69%
